We go through 1 compound from US20260284082A1, “TARGETING THE PANX1-P2Y2R-TRPV4 PATHWAY TO TREAT LUNG ISCHEMIA-REPERFUSION INJURY” (UNIVERSITY OF VIRGINIA PATENT FOUNDATION, priority 2023, published 2026).

This test concerns TRPV4EC channels. Description: TRPV4 sparklet activity in human PMVECs exposed to acute HR. It counts as cell-based. More on the design: dose or concentration left out as unconfirmed. To be noted: 1 h hypoxia + 10 min reoxygenation. As to the method: TRPV4 sparklets were assessed as increases in fluorescence relative to baseline fluorescence, obtained by averaging 10 quiescent images prior to stimulation. TRPV4 Ca^2+ sparklets were assessed based on previously established methods.^9,11 Average TRPV4 sparklet activity is defined as NPO, where N is the number of TRPV4 channels per site and PO is the open-state probability of the channel. NPO was calculated using the Single Channel Search module of Clampfit. quantal amplitudes derived from all-points histograms (0.3 AF/F0 for Fluo-4-loaded Pas),^12 and the following equation: NPO=(Tlevel1+2Tlevel2+3Tlevel3+4Tlevel4)/Ttotal, where T represents the dwell time at each quantal level and Ttotal is the total recording duration. […]
Ca^2+ imaging in human and mouse PMVECs was performed using an Andor Dragonfly 505 spinning-disk confocal imaging system with Borealis illumination and an Integrated Laser Engine solid-state laser source (Andor Technology, Belfast, UK), coupled with a Leica Dmi8 inverted microscope (Leica) and 63× objective (NA 1.47)^13 Images were acquired at 30 frames per second using Fusion 2.3 (Oxford Instruments, Belfast, UK) and an electron-multiplying CCD camera (iXon888). Calbryte 520 AM was excited at 488 nm, and emitted fluorescence was captured using a 525/50 bandpass emission filter. […]

In the case of `Cc1ccc2c(c1)C=Cc1cc(C)ccc1C2c1cn(Cc2ccc(C(=O)Nc3nn[nH]n3)o2)c(=O)[nH]c1=S` [ARC, AR-C 118925XX], the “HR-induced increase in TRPV4EC sparklets” value is on record as “blocked”.
